The assay deals with α-synuclein cytotoxicity in M17-SYNwt cells. Nature of the assay: α-synuclein cytotoxicity assay: LDH leakage from paraquat-treated M17-SYNwt neuroblastoma cells.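 On all read-outs here: paraquat at 32 mM co-added with compound, 40 h exposure, LDH activity released into the culture medium measured, references are DMSO-only cells and paraquat plus DMSO cells.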 Particulars: Homo sapiens, Neuroblastoma cell; for Emax: read-out: % Inhib. For orientation: LDH in the medium is a marker of cell lysis.

Description: An α-synuclein expression plasmid was constructed by sub-cloning the NcoI/XhoI fragment from 212T-SYN(WT) (Griffioen et al., Biochem Biophys Acta (2006) 1762(3):312-318) containing the cDNA of human wild type α-synuclein correspondingly into a standard mammalian expression vector pcDNA3.1 (Invitrogen) resulting into the plasmid pcDNA3.1-SYNwt. Plasmids pcDNA3.1 and pcDNA3.1-SYNwt were transfected to human neuroblastoma cells (ATCC No. CRL-2267) and independent clonal lines with the plasmids stably integrated into the genome were selected. […] Over-expression of α-synuclein in M17-SYNwt cell lines was confirmed by Western analysis.
Due to the high levels of α-synuclein M17-SYNwt cells are exquisitely sensitivity to paraquat, a well-known risk factor of synuclein-dependent neuronal degeneration. In degenerated or dead cells lactate dehydrogenase (LDH) is leaked out of the cells into the extracellular environment due to a loss of plasma-membrane integrity. This principle was used to determine cytotoxicity by quantifying the level of leaked LDH into the growth medium.
The detailed method for determining α-synuclein cytotoxicity was as follows: From appropriate precultures of M17 and M17-SYN cells were seeded at 50,000 cells/cm^2 in Optimem Reduced Serum without phenol red (available from InVitrogen, Cat. 31985-047) supplemented with 5% fetal calf serum, 1 mM sodium pyruvate, 1× non-essential amino acids, 500 μg/ml G418 0,5× antibiotic/antimycotic. After 3 hours of incubation at 37° C./5% CO2 paraquat was added to the cells (final concentration of 32 mM), together with the test compound and the cells were further incubated for 40 hours. Subsequently, LDH activity was determined using Promega Cytotox 96 Non-Radioactive cytotoxicity assay, (Cat. G1780) according the instructions of the supplier.
In these experiments, the control group consisted of M17-SYNwt cells treated with DMSO, the untreated paraquat group consisted of M17-SYNwt cells treated with paraquat and DMSO, and the treated paraquat group consisted of M17-SYNwt cells treated with paraquat and the test compound dissolved in DMSO.

One may read the EC50 as the concentration that produces a half-maximal response. As to `Cc1cccc(C)c1NC(=O)N1CCN(c2nc(Cc3ccc(F)cc3)ns2)CC1` [compound 24, N-(2,6-dimethylphenyl)-4-[3-(4-fluorobenzyl)-1,2,4-thiadiazol-5-yl]piperazine-1-carboxamide], the midpoint of the response, the EC50, lay at 1200 nM and the Emax turned out to be 124%.

Consider `Cc1ccccc1C(=O)NCCN1CCN(c2nc(Cc3ccc(F)cc3)ns2)CC1` [compound 99, 2-methyl-N-{2-[4-[3-(4-fluorobenzyl)-1,2,4-thiadiazol-5-yl]piperazin-1-yl]ethyl}benzamide], for which the midpoint of the response, the EC50, lay at 1580 nM and the Emax came out at 97%. Taken in the same sequence, the figures for `CC1CN(c2nc(Cc3ccc(F)cc3)ns2)CCN1C(=O)Nc1ccc(F)cc1F` (stereo not drawn) [compound 23, N-(2,4-difluorophenyl)-4-[3-(4-fluorobenzyl)-1,2,4-thiadiazol-5-yl]-2-methylpiperazine-1-carboxamide] were 940 nM and 66%. On to `O=C(c1ccc2c(c1)OCO2)N1CCCN(c2nc(Cc3ccc(F)cc3)ns2)CC1` [compound 191, 1-(1,3-benzodioxol-5-ylcarbonyl)-4-[3-(4-fluorobenzyl)-1,2,4-thiadiazol-5-yl]-1,4-diazepane], for which the Emax is 63%. Consider `Cc1ccc(Cc2nsc(N3CCN(C(=O)c4ccccc4F)C(C)C3)n2)cc1` (stereo not drawn) [compound 149, 1-(2-fluorobenzoyl)-4-[3-(4-methylbenzyl)-1,2,4-thiadiazol-5-yl]-2-methylpiperazine], for which the response was half-maximal at 980 nM (EC50) and the Emax stood at 105%. Taken in the same sequence, the figures for `O=C(NCCN1CCN(c2nc(Cc3ccc(F)cc3)ns2)CC1)c1ccccc1` [compound 104, N-{2-[4-[3-(4-fluorobenzyl)-1,2,4-thiadiazol-5-yl]piperazin-1-yl]ethyl}benzamide] were 3820 nM and 65%.

Take `O=C(NCCN1CCN(c2nc(Cc3ccc(F)cc3)ns2)CC1)c1cc(Cl)cc(Cl)c1` [compound 98, 3,5-dichloro-N-{2-[4-[3-(4-fluorobenzyl)-1,2,4-thiadiazol-5-yl]piperazin-1-yl]ethyl}benzamide]: it took 1420 nM to reach a half-maximal effect (EC50) and the Emax stood at 102%.

Consider `Cc1ccc(Cc2nsc(N3CCN(S(=O)(=O)c4ccc([N+](=O)[O-])cc4)C(C)C3)n2)cc1` (stereo not drawn) [compound 71, 1-[4-nitrophenylsulfonyl]-4-[3-(4-methylbenzyl)-1,2,4-thiadiazol-5-yl]-2-methylpiperazine], for which the Emax was found to be 33%. Take `Cc1ccc(C(=O)N2CCN(c3nc(Cc4ccc(F)cc4)ns3)CC2)cc1` [compound 141, 1-(4-methylbenzoyl)-4-[3-(4-fluorobenzyl)-1,2,4-thiadiazol-5-yl]piperazine]: the concentration for a half-maximal effect (EC50) was 490 nM and the Emax was 75%. The matching figures for `CCCCS(=O)(=O)N1CCN(c2nc(Cc3ccc(Cl)cc3)ns2)CC1` [compound 81, 1-(butylsulfonyl)-4-[3-(4-chlorobenzyl)-1,2,4-thiadiazol-5-yl]piperazine]: 350 nM and 80%.

Take `Cc1ccc(C(=O)N2CCCN(c3nc(Cc4ccc(F)cc4)ns3)CC2)cc1` [compound 190, 1-(4-methylbenzoyl)-4-[3-(4-fluorobenzyl)-1,2,4-thiadiazol-5-yl]-1,4-diazepane]: a half-maximal effect (EC50) was put at 2770 nM and the Emax worked out at 87%.

With `COc1cccc(Cc2nsc(N3CCN(C(=O)c4ccc(F)cc4)C(C)C3)n2)c1` (stereo not drawn) [compound 123, 1-(4-fluorobenzoyl)-4-[3-(3-methoxybenzyl)-1,2,4-thiadiazol-5-yl]-2-methylpiperazine], the concentration giving a half-maximal response (EC50) was 140 nM and the Emax worked out at 95%. Regarding `CC1CN(c2nc(Cc3ccc(F)cc3)ns2)CCN1S(=O)(=O)c1ccc(C(C)(C)C)cc1` (stereo not drawn) [compound 54, 1-[4-tert-butylphenylsulfonyl]-4-[3-(4-fluorobenzyl)-1,2,4-thiadiazol-5-yl]-2-methylpiperazine], the Emax was found to be 60%. As for `CCC(C(=O)NCCN1CCN(c2nc(Cc3ccc(F)cc3)ns2)CC1)c1ccccc1` (stereo not drawn) [compound 111, 2-phenyl-N-{2-[4-[3-(4-fluorobenzyl)-1,2,4-thiadiazol-5-yl]piperazin-1-yl]ethyl}butanamide], the EC50 was 1790 nM and the Emax turned out to be 79%.

Consider `CC1CN(c2nc(Cc3ccc(F)cc3)ns2)CCN1S(=O)(=O)c1ccc([N+](=O)[O-])cc1` (stereo not drawn) [compound 73, 1-[4-nitrophenylsulfonyl]-4-[3-(4-fluorobenzyl)-1,2,4-thiadiazol-5-yl]-2-methylpiperazine], for which the Emax turned out to be 33%. With `COc1ccc(C(=O)N2CCN(c3nc(Cc4ccc(F)cc4)ns3)CC2C)cc1` (stereo not drawn) [compound 118, 1-(4-methoxybenzoyl)-4-[3-(4-fluorobenzyl)-1,2,4-thiadiazol-5-yl]-2-methylpiperazine], the response was half-maximal at 91.1 nM (EC50) and the Emax came out at 64%.

As for `COc1cccc(Cc2nsc(N3CCN(C(=O)c4ccccc4F)C(C)C3)n2)c1` (stereo not drawn) [compound 115, 1-(2-fluorobenzoyl)-4-[3-(3-methoxybenzyl)-1,2,4-thiadiazol-5-yl]-2-methylpiperazine], the EC50 is 36.1 nM and the Emax came to 75%.

Regarding `O=C(c1cccc(F)c1)N1CCN(c2nc(Cc3ccc(Cl)cc3)ns2)CC1` [compound 157, 1-(3-fluorobenzoyl)-4-[3-(4-chlorobenzyl)-1,2,4-thiadiazol-5-yl]piperazine], the 50% effective concentration (EC50) turned out to be 1700 nM and the Emax turned out to be 70%. Taken in the same sequence, the figures for `COc1cccc(Cc2nsc(N3CCN(C(=O)c4ccc(C)cc4)C(C)C3)n2)c1` (stereo not drawn) [compound 124, 1-(4-methylbenzoyl)-4-[3-(3-methoxybenzyl)-1,2,4-thiadiazol-5-yl]-2-methylpiperazine] were 140 nM and 57%. Take `Cc1ccc(Cc2nsc(N3CCN(C(=O)c4ccc(C(C)(C)C)cc4)CC3)n2)cc1` [compound 183, 1-(4-tert-butylbenzoyl)-4-[3-(4-methylbenzyl)-1,2,4-thiadiazol-5-yl]piperazine]: the Emax is 52%.

Take `CC1CN(c2nc(Cc3ccccc3)ns2)CCN1C(=O)c1cccc(F)c1` (stereo not drawn) [compound 150, 1-(3-fluorobenzoyl)-4-[3-benzyl-1,2,4-thiadiazol-5-yl]-2-methylpiperazine]: the EC50 is 1140 nM and the Emax stood at 99%.

Regarding `COc1ccc(S(=O)(=O)N2CCN(c3nc(Cc4ccc(C)cc4)ns3)CC2)cc1` [compound 68, 1-[4-methoxyphenylsulfonyl]-4-[3-(4-methylbenzyl)-1,2,4-thiadiazol-5-yl]piperazine], the midpoint of the response, the EC50, lay at 0.255 nM and the Emax worked out at 53%. `COc1ccc(S(=O)(=O)NCCN(C)c2nc(Cc3cccc(OC)c3)ns2)cc1` [compound 213, N′-[4-methoxyphenylsulfonyl]-N-[3-(3-methoxybenzyl)-1,2,4-thiadiazol-5-yl]-N-methylethane-1,2-diamine]: a half-maximal effect (EC50) was put at 361 nM and the Emax turned out to be 94%. The matching figures for `Clc1ccc(Cc2nsc(N3CCN(C/C=C/c4ccccc4)CC3)n2)cc1` [compound 92, 1-[3-phenylprop-2-enyl]-4-[3-(4-chlorobenzyl)-1,2,4-thiadiazol-5-yl]piperazine]: 750 nM and 69%.

In the case of `CC1CN(c2nc(Cc3ccc(F)cc3)ns2)CCN1C(=O)c1ccc([N+](=O)[O-])cc1` (stereo not drawn) [compound 184, 1-(4-nitrobenzoyl)-4-[3-(4-fluorobenzyl)-1,2,4-thiadiazol-5-yl]-2-methylpiperazine], the Emax is 52%. Regarding `CCc1ccc(NC(=O)N2CCN(c3nc(Cc4ccc(F)cc4)ns3)CC2C)cc1` (stereo not drawn) [compound 11, N-(4-ethylphenyl)-4-[3-(4-fluorobenzyl)-1,2,4-thiadiazol-5-yl]-2-methylpiperazine-1-carboxamide], it took 690 nM to reach a half-maximal effect (EC50) and the Emax came out at 73%.

For the molecule `CC1CN(c2nc(Cc3ccc(F)cc3)ns2)CCN1C(=O)/C=C/c1ccccc1` (stereo not drawn) [compound 87, 1-[(2E)-3-phenylprop-2-enoyl]-4-[3-(4-fluorobenzyl)-1,2,4-thiadiazol-5-yl]-2-methylpiperazine], the EC50 is 2490 nM and the Emax stood at 94%. The matching figures for `O=C(c1ccc(Cl)cc1)N1CCCN(c2nc(Cc3ccc(F)cc3)ns2)CC1` [compound 189, 1-(4-chlorobenzoyl)-4-[3-(4-fluorobenzyl)-1,2,4-thiadiazol-5-yl]-1,4-diazepane]: 170 nM and 85%. On to `CC1CN(c2nc(Cc3ccc(F)cc3)ns2)CCN1C(=O)Cc1ccccc1` (stereo not drawn) [compound 5, 1-phenylacetyl-4-[3-(4-fluorobenzyl)-1,2,4-thiadiazol-5-yl]-2-methylpiperazine], for which the Emax is 83%. In the case of `CC1CN(c2nc(Cc3ccc(F)cc3)ns2)CCN1C(=O)c1cccc(C(F)(F)F)c1` (stereo not drawn) [compound 145, 1-(3-trifluoromethylbenzoyl)-4-[3-(4-fluorobenzyl)-1,2,4-thiadiazol-5-yl]-2-methylpiperazine], the concentration giving a half-maximal response (EC50) was found to be 620 nM and the Emax worked out at 60%.

Regarding `Fc1ccc(Cc2nsc(N3CCN(c4ccccc4F)CC3)n2)cc1` [compound 187, 1-(2-fluorophenyl)-4-[3-(4-fluorobenzyl)-1,2,4-thiadiazol-5-yl]piperazine], the response was half-maximal at 2810 nM (EC50) and the Emax was 83%. The matching figures for `Cc1ccc(Cc2nsc(N3CCN(C(=O)c4ccc(F)cc4)CC3)n2)cc1` [compound 160, 1-(4-fluorobenzoyl)-4-[3-(4-methylbenzyl)-1,2,4-thiadiazol-5-yl]piperazine]: 2870 nM and 88%. In the case of `O=C(c1ccccc1)N1CCN(c2nc(Cc3ccc(F)cc3)ns2)CC1` [compound 181, 1-benzoyl-4-[3-(4-fluorobenzyl)-1,2,4-thiadiazol-5-yl]piperazine], the Emax came out at 60%. For `Cc1ccc(C(=O)NCCN2CCN(c3nc(Cc4ccc(F)cc4)ns3)CC2)cc1` [compound 101, 4-methyl-N-{2-[4-[3-(4-fluorobenzyl)-1,2,4-thiadiazol-5-yl]piperazin-1-yl]ethyl}benzamide], the EC50 was 1940 nM and the Emax worked out at 68%.
